pIC50: −log10 of the molar value.
Assays:
Parameters in all cases: species or system Severe acute respiratory syndrome coronavirus 2
[1] = Inhibition of SARS-CoV-2 main protease L89F mutant expressed in Escherichia coli BL21 (DE3) using DABCYL-KTSAVLQ1SGFRKM-E(EDANS)-NH2 as substrate preincubated for 10 mins followed by substrate addition and measured after 5 mins by FRET analysis
[2] = Inhibition of SARS-CoV-2 main protease P132H mutant expressed in Escherichia coli BL21 (DE3) using DABCYL-KTSAVLQ1SGFRKM-E(EDANS)-NH2 as substrate preincubated for 10 mins followed by substrate addition and measured after 5 mins by FRET analysis
[3] = Inhibition of SARS-CoV-2 main protease T21I mutant expressed in Escherichia coli BL21 (DE3) using DABCYL-KTSAVLQ1SGFRKM-E(EDANS)-NH2 as substrate preincubated for 10 mins followed by substrate addition and measured after 5 mins by FRET analysis
[4] = Inhibition of SARS-CoV-2 main protease L205V mutant expressed in Escherichia coli BL21 (DE3) using DABCYL-KTSAVLQ1SGFRKM-E(EDANS)-NH2 as substrate preincubated for 10 mins followed by substrate addition and measured after 5 mins by FRET analysis
[5] = Inhibition of SARS-CoV-2 main protease K90R mutant expressed in Escherichia coli BL21 (DE3) using DABCYL-KTSAVLQ1SGFRKM-E(EDANS)-NH2 as substrate preincubated for 10 mins followed by substrate addition and measured after 5 mins by FRET analysis
[6] = Inhibition of SARS-CoV-2 main protease G15S mutant expressed in Escherichia coli BL21 (DE3) using DABCYL-KTSAVLQ1SGFRKM-E(EDANS)-NH2 as substrate preincubated for 10 mins followed by substrate addition and measured after 5 mins by FRET analysis

**Q.** With `CC(C)(C)[C@H](NC(=O)C(F)(F)F)C(=O)N1C[C@H]2[C@@H]([C@H]1C(=O)N[C@H](C#N)C[C@@H]1CCNC1=O)C2(C)C` as the compound, how does the pIC50 [1] read?
**A.** Its pIC50 is 7.98.

**Q.** What about the pIC50 [2] of the same compound?
**A.** The pIC50 was 7.91.

**Q.** And the pIC50 [3]?
**A.** The pIC50 was 8.00.

**Q.** What about the pIC50 [4] of the same compound?
**A.** Its pIC50 is 7.97.

**Q.** What about the pIC50 [5] of the same compound?
**A.** The pIC50 was 7.90.

**Q.** What about the pIC50 [6] of the same compound?
**A.** Its pIC50 is 7.99.

Reference: ChEMBL document CHEMBL5143594 (Bioorg Med Chem Lett, 2022)
